From US6413979B1, “Substituted 5-(2,2-difluoro-1,3-benzodioxol-5-yl) cyclopentenopyridine derivative” (Banyu Pharmaceutical Co., Ltd., priority 1998, dated 2002)
pIC50: −log10 of the molar value. Where two headings read alike, the source gives them in different places.

Key:
[1] = test system: endothelin-induced contraction of iliac artery specimen
Procedure: Effect on Endothelin-induced Contraction of Iliac Artery Specimen from Rabbit
The iliac artery was excised from a rabbit and made into a spiral specimen of 1 mm wide and 10 mm long. The specimen was stripped of the endothelial cells and suspended in a 5 ml Magnus tube filled with Krebs-Henseleit solution saturated with a gas mixture of O2 (95%) and CO2 (5%), and the change in tension was isometrically measured and recorded.
The effects of a compound of the present invention on the dose-response curve obtained by cumulative addition of endothelin-1 to the Magnus tube were investigated. A compound of the present invention was added to the Magnus tube at a final concentration of 10 μM 20 minutes before the addition of endothelin-1.

[2] = 10 mg/kg as sodium salt in water, SD male rats, bioassay
Procedure: Concentration in Rat Plasma after Oral Administration
SD male rats (8 weeks old, n=3) were subjected to cannulation of the carotid artery beforehand and after the recovery from the surgery, subjected to a fast of one night for the test. The sodium salt of the diastereomer A prepared in Example 14, which is a representative compound of the present invention, was dissolved in water, and the resulting aqueous solution (concentration: 2.0 mg/ml) was forcibly administrated into the stomach in an amount of 10 mg/kg by gavage. Before the administration and 1, 4 and 8 hours after the administration, 120 μl of the blood was withdrawn from the cannulae in the carotid arteries with the aid of heparin and the plasma was separated by cold centrifugation. 25 μl of portions of the plasma were deproteinized by adding 100 μl of ethanol and centrifuged (10,000×g, 10 minutes, 0° C.) under cooling. 80 μl portions of the supernatants was used for a bioassay of the concentration in plasma.

ETA receptor = molecular target: T1, ETA receptor (Homo sapiens, UniProt P25101); assay: Endothelin binding inhibition test on human endothelin receptors ([125I]endothelin-1), ETA
T1 construct: host or cells: human neuroblastoma SK-N-MC cells (membranes)
T1 sequence (P25101 21-427): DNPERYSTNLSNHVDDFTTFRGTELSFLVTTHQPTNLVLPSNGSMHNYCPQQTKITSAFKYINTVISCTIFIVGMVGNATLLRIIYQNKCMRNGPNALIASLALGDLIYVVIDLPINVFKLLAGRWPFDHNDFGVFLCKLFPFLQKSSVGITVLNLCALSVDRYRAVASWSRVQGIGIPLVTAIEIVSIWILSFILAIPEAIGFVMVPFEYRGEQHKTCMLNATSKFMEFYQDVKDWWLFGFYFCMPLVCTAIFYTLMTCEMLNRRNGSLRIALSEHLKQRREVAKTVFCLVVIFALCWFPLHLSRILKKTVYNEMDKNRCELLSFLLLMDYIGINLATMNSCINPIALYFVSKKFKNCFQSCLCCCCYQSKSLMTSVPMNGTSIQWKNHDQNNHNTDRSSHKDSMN
Procedure: (§1) Endothelin Binding Inhibition Test on Human Endothelin Recepters
The human neuroblastoma SK-N-MC cells or the human Giradi heart cells, purchased from Dainippon Seiyaku (Japan), were cultured in minimal essential medium supplemented with fetal calf serum. The cells were collected and homogenized in 10 mM MOPS buffer (pH 7.4) containing 154 mM NaCl, 10 mM KCl, 0.8 mM CaCl2 and 20% sucrose at 4° C. using a polytron homogenizer. The homogenate was then centrifuged at 10,000×g for 15 minutes. The supernatant was centrifuged at 100,000×g for 1 hour at 4° C. Then the pellet was washed with 5 mM HEPES/Tris buffer (pH 7.4). The resulting membranes (50 μl) were mixed with [^125I]endothelin-1 (20 pM) and 4 μl of DMSO solution of a test compound in 67 mM Tris/HCl buffer (pH 7.4) containing 0.13 mM phenylmethanesulfonyl fluoride, 1.3 μM pepstatin, 2.7 μM leupeptin, 1.3 mM 1,10-phenanthroline, 1.3 mM EDTA, 13 μM CaCl2, 13 μM MgCl2 and 0.13% bovine serum albumin (BSA) in a total volume of 0.35 ml. After 4 hours incubation, cold 5 mM HEPES/Tris buffer (pH 7.4) containing 0.3% BSA (Buffer B) was added to the mixture, and free and bound [^125I]endothelin-1 were separated by filtration using Whatman GF/C glass fiber filters. After the filtration, the filters were washed with buffer B, and the radioactivity on the filters was measured in a γ counter. Nonspecific binding was determined in the presence of 200 nM endothelin-1.
The concentration of a test compound of the present invention causing 50% inhibition of [^125I]endothelin-1 binding (IC50 value) was derived by the following [^125I]endothelin-1 binding inhibition D (%): [formula]
(§2) where (A): for nonspecific binding including 200 nM of unlabeled endothelin-1 as the final concentration, (B): for total binding including labeled endothelin-1 without a test compound, and (C): for binding including labeled endothelin-1 with a concentration of a test compound, show the radioactivity.

ETB receptor = molecular target: T2, ETB receptor (Homo sapiens, UniProt P24530); assay: Endothelin binding inhibition test on human endothelin receptors ([125I]endothelin-1), ETB; settings: human cell membranes, 20 pM [125I]endothelin-1, 4 hours incubation
T2 construct: host or cells: human Girardi heart cells (membranes)
T2 sequence (P24530 27-442): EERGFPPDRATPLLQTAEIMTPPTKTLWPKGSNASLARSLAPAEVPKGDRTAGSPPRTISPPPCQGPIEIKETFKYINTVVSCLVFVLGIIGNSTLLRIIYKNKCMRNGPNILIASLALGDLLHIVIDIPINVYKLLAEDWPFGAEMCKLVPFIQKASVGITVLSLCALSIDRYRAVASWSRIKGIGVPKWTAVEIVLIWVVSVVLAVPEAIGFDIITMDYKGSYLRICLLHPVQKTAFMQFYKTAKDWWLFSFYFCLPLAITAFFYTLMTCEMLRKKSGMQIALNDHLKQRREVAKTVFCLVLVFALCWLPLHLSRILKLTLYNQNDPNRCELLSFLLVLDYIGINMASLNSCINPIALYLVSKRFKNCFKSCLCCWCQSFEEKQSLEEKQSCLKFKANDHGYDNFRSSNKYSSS
Procedure: as §1
The human neuroblastoma SK-N-MC cells or the human Giradi heart cells, purchased from Dainippon Seiyaku (Japan), were cultured in minimal essential medium supplemented with fetal calf serum. The cells were collected and homogenized in 10 mM MOPS buffer (pH 7.4) containing 154 mM NaCl, 10 mM KCl, 0.8 mM CaCl2 and 20% sucrose at 4° C. using a polytron homogenizer. The homogenate was then centrifuged at 10,000×g for 15 minutes. The supernatant was centrifuged at 100,000×g for 1 hour at 4° C. Then the pellet was washed with 5 mM HEPES/Tris buffer (pH 7.4). […] After the filtration, the filters were washed with buffer B, and the radioactivity on the filters was measured in a γ counter. Nonspecific binding was determined in the presence of 200 nM endothelin-1. […]
as §2

SMILES | change in the maximum response to endothelin-1 ([1]; concentrations from 0.1 μM to 10 μM) | effect on the dose-response curve for endothelin-1 ([1]; concentrations from 0.1 μM to 10 μM, added 20 minutes before endothelin-1) | effect of the compound by itself on the artery specimen ([1]; without endothelin-1) | concentration in rat plasma ([2]; 1 hour after oral administration) | concentration in rat plasma ([2]; 4 hours after oral administration) | concentration in rat plasma ([2]; 8 hours after oral administration) | binding-inhibitory activity to ETA receptor compared with ETB receptor (in words) (ETA receptor) | pIC50 (ETA receptor; human cell membranes, 20 pM [125I]endothelin-1, 4 hours incubation) | ETB/ETA (ETA receptor; ratio of IC50 values) | pIC50 (ETB receptor)
COc1ccc([C@@H]2c3nc(NC(C)C)ccc3[C@H](c3ccc4c(c3)OC(F)(F)O4)[C@H]2C(=O)O)c(CC(C)CO)c1 (single isomer, unassigned; diastereomer a) [diastereomer A prepared in Example 14] | no change in the maximum response | appreciably shifted the dose-response curve for endothelin-1 to the right | no effect on the artery specimen by itself | 452 ng/mL | 124 ng/mL | 203 ng/mL |  |  |  | 
COc1ccc([C@@H]2c3nc(NC(C)C)ccc3[C@H](c3ccc4c(c3)OC(F)(F)O4)[C@H]2C(=O)O)c(CC(C)C(=O)O)c1 (single isomer, unassigned; diastereomer a) [Diastereomer A of example 18] |  |  |  |  |  |  | far higher binding-inhibitory activity to ETA receptor than to ETB receptor | 10.25 | ETB/ETA = 1400 | 7.11
